Assay results as given in the CheMixHub viscosity set.

Assay: xn = mol fraction of the nth substance listed

NN + O
Details	viscosity [mPa·s]
293.15 K, 101.3 kPa, x1 = 0.0526	1.11
293.15 K, 101.3 kPa, x1 = 0.1045	1.26
293.15 K, 101.3 kPa, x1 = 0.1502	1.4
293.15 K, 101.3 kPa, x1 = 0.2047	1.57
293.15 K, 101.3 kPa, x1 = 0.3013	1.8
293.15 K, 101.3 kPa, x1 = 0.3512	1.88
293.15 K, 101.3 kPa, x1 = 0.3967	1.96
293.15 K, 101.3 kPa, x1 = 0.4526	1.92
293.15 K, 101.3 kPa, x1 = 0.4938	1.89
293.15 K, 101.3 kPa, x1 = 0.5997	1.71
293.15 K, 101.3 kPa, x1 = 0.7032	1.51
293.15 K, 101.3 kPa, x1 = 0.8022	1.28
293.15 K, 101.3 kPa, x1 = 0.8961	1.11
303 K, 101 kPa, x1 = 0.1	1.009
303 K, 101 kPa, x1 = 0.2	1.181
303 K, 101 kPa, x1 = 0.3	1.357
303 K, 101 kPa, x1 = 0.4	1.364
303 K, 101 kPa, x1 = 0.55	1.43
303 K, 101 kPa, x1 = 0.6	1.41
303 K, 101 kPa, x1 = 0.7	1.34
303 K, 101 kPa, x1 = 0.8	1.21
303 K, 101 kPa, x1 = 0.9	1.02
313 K, 101 kPa, x1 = 0.1	0.869
313 K, 101 kPa, x1 = 0.2	0.989
313 K, 101 kPa, x1 = 0.3	1.138
313 K, 101 kPa, x1 = 0.4	1.148
313 K, 101 kPa, x1 = 0.55	1.19
313 K, 101 kPa, x1 = 0.6	1.17
313 K, 101 kPa, x1 = 0.7	1.1
313 K, 101 kPa, x1 = 0.8	0.98
313 K, 101 kPa, x1 = 0.9	0.83

Nc1cccc(Cl)c1 + CCOCCO
303.15 K, 101 kPa
Details	viscosity [mPa·s]
x1 = 0.0966	2.028
x1 = 0.1696	2.159
x1 = 0.2725	2.333
x1 = 0.3613	2.473
x1 = 0.4791	2.643
x1 = 0.5648	2.755
x1 = 0.68	2.897
x1 = 0.7804	3.008
x1 = 0.8884	3.121

CC(=O)CCC(=O)O + CCCC[N+](CCCC)(CCCC)CCCC.[Br-]
viscosity [mPa·s], 101 kPa
Details	293.15 K	298.15 K	303.15 K	308.15 K	313.15 K	318.15 K	323.15 K
x1 = 0.75	376.5	–	175.1	–	93.88	–	53.38
x2 = 0.25	–	261.9	169.6	118.6	89.13	64.47	46.13

Nc1cccc(Cl)c1 + CCCCCCCO
viscosity [mPa·s], 101 kPa
Details	x1 = 0.1306	x1 = 0.2526	x1 = 0.3669	x1 = 0.4741	x1 = 0.5749	x1 = 0.6698	x1 = 0.7593	x1 = 0.844	x1 = 0.9241
303.15 K	4.923	4.794	4.684	4.589	4.509	4.442	4.385	4.336	4.292
308.15 K	4.229	4.143	4.072	4.014	3.966	3.927	3.895	3.869	3.853
313.15 K	3.647	3.585	3.538	3.501	3.473	3.451	3.438	3.433	3.432
318.15 K	3.346	3.269	3.207	3.156	3.114	3.079	3.051	3.032	3.023

CCC(=O)O + CCCCO
308.15 K, 101 kPa
Details	viscosity [mPa·s]
x1 = 0.0503	1.834
x1 = 0.1016	1.791
x1 = 0.1477	1.736
x1 = 0.1995	1.695
x1 = 0.301	1.556
x1 = 0.4	1.482
x1 = 0.5007	1.402
x1 = 0.5993	1.312
x1 = 0.7006	1.222
x1 = 0.7995	1.12
x1 = 0.9007	1.02

ClCCCCCl + CC(C)(C)O
viscosity [mPa·s], 101 kPa
Details	x1 = 0.1005	x1 = 0.2009	x1 = 0.2964	x1 = 0.435	x1 = 0.5026	x1 = 0.602	x1 = 0.7061	x1 = 0.8038	x1 = 0.9014
298.15 K	2.618	1.826	1.482	1.315	1.257	1.202	1.18	1.182	1.208
313.15 K	1.495	1.18	1.035	0.9459	0.9313	0.9139	0.916	0.9291	0.9613

CCC(=O)O + Nc1ccccc1
Details	viscosity [mPa·s]
298.15 K, 101 kPa, x1 = 0.0996	4.218
298.15 K, 101 kPa, x1 = 0.2015	4.652
298.15 K, 101 kPa, x1 = 0.2966	5.177
298.15 K, 101 kPa, x1 = 0.388	5.87
298.15 K, 101 kPa, x1 = 0.4955	6.898
298.15 K, 101 kPa, x1 = 0.5962	7.775
298.15 K, 101 kPa, x1 = 0.716	7.294
298.15 K, 101 kPa, x1 = 0.7994	5.282
298.15 K, 101 kPa, x1 = 0.895	2.477
308.15 K, 101.33 kPa, x1 = 0.1243	2.912
308.15 K, 101.33 kPa, x1 = 0.2382	3.203
308.15 K, 101.33 kPa, x1 = 0.3507	3.59
308.15 K, 101.33 kPa, x1 = 0.4545	3.971
308.15 K, 101.33 kPa, x1 = 0.5568	4.468
308.15 K, 101.33 kPa, x1 = 0.6544	4.762
308.15 K, 101.33 kPa, x1 = 0.7452	4.169
308.15 K, 101.33 kPa, x1 = 0.7903	3.402
308.15 K, 101.33 kPa, x1 = 0.8345	2.792
308.15 K, 101.33 kPa, x1 = 0.8774	2.008
308.15 K, 101.33 kPa, x1 = 0.918	1.561
308.15 K, 101.33 kPa, x1 = 0.9595	1.168

CCC(=O)O + C1CCCCC1
303.15 K, 101 kPa
Details	viscosity [mPa·s]
x2 = 0.1973	0.8074
x2 = 0.286	0.771
x2 = 0.384	0.7319
x2 = 0.4987	0.7121
x2 = 0.5994	0.7197
x2 = 0.6998	0.7155
x2 = 0.8991	0.7582

O=C(O)c1ccccc1O + CCCO
viscosity [mPa·s]
Details	308.15 K	313.15 K	318.15 K	323.15 K
101 kPa, x1 = 0.133	2.13	–	–	1.51
101 kPa, x1 = 0.16	2.236	–	–	1.602
101 kPa, x1 = 0.179	2.427	–	–	1.69
101 kPa, x1 = 0.191	2.4	–	–	1.722
101.33 kPa, x1 = 0.16	2.236	2.012	1.791	1.602
101.33 kPa, x1 = 0.19	–	2.17	1.929	1.722

Nc1cccc(Cl)c1 + CCCCCCO
viscosity [mPa·s], 101 kPa
Details	x1 = 0.1167	x1 = 0.2291	x1 = 0.3375	x1 = 0.4421	x1 = 0.5431	x1 = 0.6407	x1 = 0.735	x1 = 0.8263	x1 = 0.9145
303.15 K	3.905	3.925	3.95	3.98	4.014	4.056	4.104	4.156	4.205
308.15 K	3.383	3.417	3.454	3.497	3.545	3.598	3.654	3.715	3.776
313.15 K	2.939	2.976	3.017	3.064	3.115	3.17	3.229	3.292	3.357
318.15 K	2.662	2.681	2.707	2.738	2.773	2.814	2.857	2.906	2.959

O=C(O)c1ccccc1O + CO
viscosity [mPa·s]
Details	308.15 K	313.15 K	318.15 K	323.15 K
101 kPa, x1 = 0.13	1.049	–	–	0.8273
101 kPa, x1 = 0.14	1.086	–	–	0.8572
101 kPa, x1 = 0.15	1.118	–	–	0.8818
101 kPa, x1 = 0.17	1.262	–	–	0.9692
101.33 kPa, x1 = 0.13	1.049	0.9732	0.8932	0.8273
101.33 kPa, x1 = 0.15	1.118	1.036	0.9552	0.8818

C1C[C@@H]2[C@H]3CC[C@H](C3)[C@@H]2C1 + CCCCO
viscosity [mPa·s], 101 kPa
Details	x2 = 0.1697	x2 = 0.3148	x2 = 0.4378	x2 = 0.5481	x2 = 0.6472	x2 = 0.7336	x2 = 0.8102	x2 = 0.8799	x2 = 0.9439
293.15 K	2.796	2.675	2.646	2.66	2.694	2.743	2.807	2.855	2.906
298.15 K	2.513	2.397	2.354	2.355	2.372	2.416	2.465	2.505	2.543
303.15 K	2.282	2.177	2.128	2.118	2.135	2.165	2.211	2.242	2.272
313.15 K	1.882	1.773	1.708	1.685	1.682	1.7	1.719	1.743	1.766

CC12CCC(CC1)C(C)(C)O2 + Cc1cccc(O)c1
viscosity [mPa·s], 101 kPa
Details	x1 = 0.065	x1 = 0.1352	x1 = 0.2114	x1 = 0.2943	x1 = 0.3848	x1 = 0.4841	x1 = 0.5934	x1 = 0.7145	x1 = 0.8492
303.15 K	10.48	10.69	10.47	9.802	8.746	7.564	6.28	4.91	3.559
308.15 K	8.331	8.539	8.426	7.994	7.155	6.222	5.16	4.043	3.002
313.15 K	6.756	6.947	6.878	6.474	5.892	5.161	4.295	3.348	2.505

O=[N+]([O-])[O-].[Li+] + O
100 kPa
Details	viscosity [mPa·s]
298.11 K, x1 = 0.0088	0.9305
298.18 K, x1 = 0.00475	0.9105
298.35 K, x1 = 0.01898	0.9846
298.45 K, x1 = 0.02699	1.04
306.75 K, x1 = 0.02699	0.8753
307.65 K, x1 = 0.01898	0.8088
307.85 K, x1 = 0.00475	0.746
308.95 K, x1 = 0.0088	0.7411

CCCCCCCCCCCCCC[P+](CCCCCC)(CCCCCC)CCCCCC.c1c[n-]nn1 + O
Details	viscosity [mPa·s]
298.15 K, 100 kPa, x2 = 0.8003	106

Nc1cccc(Cl)c1 + CCCCCCCCO
viscosity [mPa·s], 101 kPa
Details	x1 = 0.1441	x1 = 0.2748	x1 = 0.3937	x1 = 0.5026	x1 = 0.6025	x1 = 0.6945	x1 = 0.7795	x1 = 0.8584	x1 = 0.9317
303.15 K	6.059	5.754	5.485	5.247	5.034	4.844	4.674	4.519	4.379
308.15 K	5.155	4.924	4.723	4.547	4.391	4.253	4.131	4.02	3.924
313.15 K	4.409	4.229	4.076	3.941	3.823	3.721	3.63	3.551	3.483
318.15 K	3.856	3.697	3.564	3.448	3.347	3.258	3.181	3.114	3.06
